This is an account of results in US20250127168A1, “METHOD FOR PATHOGENS, MICROORGANISMS, AND PARASITES INACTIVATION” (New York Blood Center, Inc., priority 2018, published 2025).

Data set [1] can be described thus: Neutralization of compound X with glutathione. Particulars: in presence of glutathione, same conditions.
Data set [2] in a line: Neutralization and covalent sequestration of compound VI by nucleophile-functionalized solid phase agents (LCMS). Type of data set: physicochemical. The protocol:
Sulfonylchloride functionalized divinylbenzene crosslinked polystyrene resin (Sigma-Aldrich Cat. no. 498211-5g) was mixed with 5 ml 2M sodium hydrogen sulfide solution (prepared by saturation of sodium sulfide nonahydrate solution in water with hydrogen sulfide) under argon. The mixture was sonicated for ca. 3 min and then stirred at 55° C. for 4 h. After that the resin was filtered and washed three times with deaerated water, there times with deaerated methanol, and two times with deaerated ether. The resin was dried under stream of argon and then under vacuum. Obtained, 1.039 g dry resin (compound XXVIII), thiosulfonate functionalized polystyrene/divinylbenzene resin. An aliquot of compound XXVIII was added to a solution of compound VI, 100 μM in PBS.
Aminoethyl groups functionalized methacrylate resin (Purolite Ltd, Llantrisant, Wales, UK, Product No. D6195, trade name Chromalite MAM2, 0.5 mmol amino groups per ml wet resin, 68% moisture), 300 mg, was dried by three evaporation from 2 ml dry N,N-dimethylformamide under vacuum at 35° C. […] The load of mercapto groups on the product, compound XXX, was determined using the Elman's procedure (Riener, C. K.; Kada, G.; Gruber, H. J., Anal. Bioanal. Chem., 2002, 373, 266-76) and was 0.21 mmol per gram of wet resin. […]
Tentagel S NH2 resin, 200 mg (Rapp Polymere GmbH, Tuebingen, Germany, product No. S30132, divinylbenzene cross-linked polystyrene resin grafted with amino group terminated polyethylene glycol) was swollen for couple of hours in 5 ml dry N,N-dimethylformamide and then the excess of solvent was pipetted off Benzotriazol-1-yl-oxytripyrrolidinophosphonium hexafluorophosphate, 151 mg, 2-(4-(triphenylmethylthio)phenyl)acetic acid, 119 mg, and anhydrous 1-hydroxybenzotriazole, 44 mg, were dissolved in 1.2 mL dry N,N-dimethylformamide. […] The mercapto groups load was determined using the Elman's procedure and was 0.12 mmol per gram of dry resin. […]

Data set [3] deals with whole blood or red blood cells concentrate. The experiment in a line: Quality of treated whole blood and red blood cells concentrate (complete blood count and biochemistry). As to conditions: 500 μM for 6 hours at RT, neutralized with sodium thiosulfate; storage at 4-6° C., weekly testing. The procedure: Ten mL samples of whole blood or red blood cells concentrate (RBCC, 25 mL) were treated with 500 μM compound VI for 6 hours at RT. The residual compound VI was neutralized by the same volume of 10 mM sodium thiosulfate for 2 hours at RT. For controls, identical samples of whole blood or RBCC were treated with saline and sodium thiosulfate without compound VI or with saline only without compound VI and/or thiosulfate. Aliquots of whole blood and RBCC from each sample were subjected to complete blood count and biochemistry analysis using IDEXX Procyte Dx Hematology Analyzer and IDEXX Catalyst Dx Chemistry Analyzer according to manufacturer recommendations. The samples were analyzed immediately after the treatment and re-analyzed after one week for whole blood and every week for 5 weeks of storage at 4-6° C. for RBCC. The following parameters were measured: RBC number, hemoglobin, hematocrit, mean corpuscular volume, mean corpuscular hemoglobin, red cell distribution, reticulocyte count, platelets, mean platelet volume, white blood cells, neutrophils, lymphocytes, monocytes, eosinophils, basophils, chloride, potassium, sodium, glucose, and lactate concentrations.

As to `CN(CCCCN(C)CCCN1CC1)CCCN(C)CCCN1CC1` [Compound X], in data set [1], the “half-life of compound X” value stood at 7.5 h.
As to `CN(CCCCN(C)CCCN1CC1)CCCN1CC1` [Compound VI, N^1,N^4-bis(3-(aziridin-1-yl)propyl)-N^1,N^4-dimethylbutane-1,4-diamine], the “concentration of compound VI in the mixture” value in data set [2] (100 μM in PBS with mercaptophenyl TentaGel S resin XXXII), in data set [2] (100 μM in PBS with mercaptophenyl methacrylate resin XXX) and in data set [2] (100 μM in PBS with thiosulfonate functionalized resin XXVIII) was “time dependent decreasing” each time. The “cellular or biochemical characteristics of treated blood versus controls” value in data set [3] is recorded as “No differences in cellular or biochemical characteristics”.
